Among the data in ChEMBL document CHEMBL1148049, “Antimitotic and cytotoxic flavonols from Zieridium pseudobtusifolium and Acronychia porteri” (J Nat Prod, 1994) are IC50 values, retold here.

Values after ≈ are worked out from the molar mass of the structure shown.

Test [1] in a line: Inhibition of tubulin assembly.
Test [2] concerns KB. In words: Cytotoxicity against human KB cells. In kind it is functional, cell-based.

`COc1ccc(-c2oc3c(OC)c(OC)c(OC)c(O)c3c(=O)c2OC)cc1O`: the IC50 in test [1] worked out at 12 µM; in test [2], 0.04 µg/mL (≈ 0.0989 µM).
Take `COc1ccc(-c2oc3c(OC)c(OC)c(OC)c(O)c3c(=O)c2OC)cc1OC`: half-maximal inhibition in test [2] (IC50) was put at 6 µg/mL (≈ 14.3 µM).
On to `COc1cc(-c2oc3c(OC)c(OC)c(OC)c(O)c3c(=O)c2O)cc(O)c1OC`, for which the IC50 in test [2] came to 2 µg/mL (≈ 4.76 µM).
On the same count and under the same terms, next, `COc1ccc(-c2oc3c(OC)c(OC)c(OC)c(O)c3c(=O)c2O)cc1O`: 6 µg/mL (≈ 15.4 µM); `COc1ccc(-c2oc3c(OC)c(OC)c(OC)c(O)c3c(=O)c2O)cc1OC`: 0.1 µg/mL (≈ 0.247 µM); `COc1c(OC)c(O)c2c(=O)c(OC)c(-c3ccc(O)c(O)c3)oc2c1OC`: 0.44 µg/mL (≈ 1.13 µM).
Same read-out and setting: next, `COc1cc(-c2oc3c(OC)c(OC)c(OC)c(O)c3c(=O)c2OC)ccc1O`: 0.2 µg/mL (≈ 0.495 µM).
Consider `COc1ccc(-c2oc3cc(O)c(OC)c(O)c3c(=O)c2OC)cc1O` [CENTAUREIDIN], for which the IC50 in test [1] is 3 µM; in test [2] it was 0.27 µg/mL (≈ 0.749 µM).
`COc1cc(-c2oc3c(OC)c(OC)c(OC)c(O)c3c(=O)c2OC)cc(O)c1OC` [DIGICITRIN] had a concentration for half-maximal inhibition (IC50) in test [2] of 2 µg/mL (≈ 4.6 µM).
`CC[C@]1(O)C[C@@H]2CN(CCc3c([nH]c4ccccc34)[C@@](C(=O)OC)(c3cc4c(cc3OC)N(C)[C@H]3[C@@](O)(C(=O)OC)[C@H](OC(C)=O)[C@]5(CC)C=CCN6CC[C@]43[C@@H]65)C2)C1` [VINBLASTINE]: half-maximal inhibition in test [1] (IC50) required 4 µM.

The term IC50 denotes the concentration that gives 50% inhibition. Low values mean inhibition by little substance, high ones a need for much substance.
